This note sets out measurements from BindingDB's records for PubMed 3139864 (Vanderbilt University, 1988).

In this assay the target is T1, 5-hydroxytryptamine receptor 2C (Rattus norvegicus, UniProt P08909).
T1 sequence (P08909 whole entry): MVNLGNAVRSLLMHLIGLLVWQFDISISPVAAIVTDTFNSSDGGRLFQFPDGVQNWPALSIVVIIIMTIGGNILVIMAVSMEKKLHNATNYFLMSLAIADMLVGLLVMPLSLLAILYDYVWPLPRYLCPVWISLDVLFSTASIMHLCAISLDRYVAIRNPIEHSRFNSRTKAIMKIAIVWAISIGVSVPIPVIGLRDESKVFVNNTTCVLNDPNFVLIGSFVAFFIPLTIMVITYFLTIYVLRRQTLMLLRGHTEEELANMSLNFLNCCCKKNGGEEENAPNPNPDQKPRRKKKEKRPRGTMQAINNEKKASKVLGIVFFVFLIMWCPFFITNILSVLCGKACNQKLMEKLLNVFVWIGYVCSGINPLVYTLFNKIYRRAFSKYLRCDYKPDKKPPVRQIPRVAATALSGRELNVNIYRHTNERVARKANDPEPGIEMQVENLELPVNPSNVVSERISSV
For the molecule `CC1(C)CC(=O)N(CCCCN2CCN(c3ncccn3)CC2)C(=O)C1` [4,4-Dimethyl-1-[4-(4-pyrimidin-2-yl-piperazin-1-yl)-butyl]-piperidine-2,6-dione], the Ki was over 10 µM. With `O=C(c1ccc(F)cc1)C1CCN(CCn2c(=O)[nH]c3ccccc3c2=O)CC1` [3-(2-{4-[(4-fluorophenyl)carbonyl]piperidin-1-yl}ethyl)-1,2,3,4-tetrahydroquinazoline-2,4-dione] the figure was 0.03 µM; with `CN(C)CCC(c1ccc(Cl)cc1)c1ccccn1` (centres undefined) [clorfeniramina], 3.12 µM; with `CN(C)CCCN1c2ccccc2CCc2ccccc21`, 0.1 µM.
